Experimental data taken from patent US4568691A, “Anti-inflammatory esters of 4-(1-hydroxy-2-[(acylamino)-alkylamino]-ethyl)-phenol derivatives, compositions, and method of use therefor” (Imperial Chemical Industries, PLC, priority 1981, dated 1986).

Assays:
[1] = system: croton oil induced inflammation on the mouse ear; test: croton oil induced inflammation test on the mouse ear, single topical application; type: in vivo, albino mouse (Alderley Park Strain); settings: 4 hours after croton oil
Experimental: A 4% v/v solution of croton oil in (acetone) was prepared. A portion (10 μl.) of this solution was applied to the right ear of an albino mouse (Alderley Park Strain, specific pathogen free). This was followed by immediate application of a portion (10 μl.) of a solution of test compound in ethanol to the same ear of the mouse. This procedure was repeated for a total of ten mice.
After 4 hours the mice were sacrificed and both ears from each mouse were removed and weighed. The increase in weight of the right over the left ear for each mouse was then determined and an average obtained for the group as a whole. […] The percentage inhibition of croton oil induced inflammation was then calculated for the test compound.

[2] = system: croton oil induced inflammation on the mouse ear; test: effect of repeated topical application on anti-inflammatory properties in the croton oil induced inflammation test; type: in vivo, albino mouse (Alderley Park Strain); settings: for Percentage reduction in croton oil induced inflammation, Four Applns: four applications (3, 2, 1 day before and immediately after croton oil), rate approximately 4 × IC50
Description: (b) An indication of the effect of repeated topical application of a test compound on its anti-inflammatory properties was obtained as follows:
first application received 3 days before croton oil;
second application received 2 days before croton oil;
third application received 1 day before croton oil; and
fourth application received immediately after croton oil.

[3] = system: croton oil induced inflammation on the mouse ear; test: as above; type: in vivo, albino mouse (Alderley Park Strain); settings: single application immediately after croton oil; rate approximately 4 × IC50
[4] = system: croton oil induced inflammation on the mouse ear; settings: known from earlier patent publications (UK 1591618); cited from earlier work

SMILES | IC50 (amount of test compound per ear which inhibited the inflammation by 50%) [1] [μg/ear] | Percentage reduction in croton oil induced inflammation, Four Applns [2] [%] | Percentage reduction in croton oil induced inflammation, Single Appln [3] [%] | reduction in topical anti-inflammatory properties after repeated topical applications ([2]; two or more / several topical applications spaced over several days) | topical anti-inflammatory properties [4]
CC(C)(CNC(=O)c1cc(Cl)ccn1)NCC(O)c1ccc(OC(=O)C(C)(C)C)c(OC(=O)C(C)(C)C)c1 (centres unmarked) [4-chloro-2-pyridyl] | 7 | 33 | 68 |  | 
CC(C)(CNC(=O)c1cccs1)NCC(O)c1ccc(OC(=O)C(C)(C)C)c(OC(=O)C(C)(C)C)c1 (centres unmarked) [Example 2-thienyl] | 7 | 33 | 71 |  | 
CC(C)(CNC(=O)c1ccoc1)NCC(O)c1ccc(OC(=O)C(C)(C)C)c(OC(=O)C(C)(C)C)c1 (centres unmarked) [Example 3-furyl] | 2 | 45 | 65 |  | 
CC(C)(CNC(=O)c1ccco1)NCC(O)c1ccc(OC(=O)C(C)(C)C)c(OC(=O)C(C)(C)C)c1 (centres unmarked) [Example 7, 4-(1-hydroxy-2-[2-(2-furylcarboxyamido)-1,1-dimethyl-ethylamino]ethyl)catechol dipivaloyl ester] | 13 | 64 | 60 |  | 

Further lines, with some results ahead:

IC50 (amount of test compound per ear which inhibited the inflammation by 50%) [1] [μg/ear] | SMILES | Percentage reduction in croton oil induced inflammation, Four Applns [2] [%] | Percentage reduction in croton oil induced inflammation, Single Appln [3] [%] | reduction in topical anti-inflammatory properties after repeated topical applications ([2]; two or more / several topical applications spaced over several days) | topical anti-inflammatory properties [4]
11 | CC(C)(CNC(=O)c1cc2ccccc2o1)NCC(O)c1ccc(OC(=O)C(C)(C)C)c(OC(=O)C(C)(C)C)c1 (centres unmarked) [Example 8, 4-(1-hydroxy-2-[1,1-dimethyl-2-(2-benzo[b]furyl-carboxamido)ethylamino]ethyl)catechol dipivaloyl ester] | 59 | 61 |  | 
23 | CC(C)(CNC(=O)c1cc2ccccc2s1)NCC(O)c1ccc(OC(=O)C(C)(C)C)c(OC(=O)C(C)(C)C)c1 (centres unmarked) [Example 9, 4-(1-hydroxy-2-[1,1-dimethyl-2-(2-benzo[b]thienylcarboxamido)ethylamino]ethyl)catechol dipivaloyl ester] | 65 | 64 |  | 
2.5 | CC(C)(CNCC(O)c1ccc(OC(=O)C(C)(C)C)c(OC(=O)C(C)(C)C)c1)NC(=O)COc1ccccc1 (centres unmarked) [phenoxymethyl, 4-(1-hydroxy-2-[2-methyl-2-(phenoxyacetamido)-propylamino]ethyl)catechol dipivaloyl ester] | 23 | 60 | significant reduction in topical anti-inflammatory properties | potent topical anti-inflammatory properties
